According to US5149648A, “Enzymes employed for producing pulps” (Kabushiki Kaisha Kobe Seiko Sho, priority 1989, dated 1992):
Read-outs that look alike come from different tables or passages of the source.

Legend:
F-3 = type: biochemical, NK-1148 strain
Experimental: (§1) The results of measuring enzyme activities of the enzymes of this invention (F-1, F-2 and F-3) after adding each of various substances are as follows.
(§2) 20 μl of the enzyme of this invention is made to react with a reaction solution consisting of 10 μl of a 10 mM syringylglycerol-β-syringylether solution which contains a small amount of dioxane and 720 μl of a 50 mM acetate buffer solution (pH 5.0) and increases of absorbance at 300 nm are measured.
(§3) Enzyme activity producing a 0.01 increase of absorbance during one minute is supposed to be one unit.

F-1 = type: biochemical, NK-1148 strain
Experimental: as §1, §2, §3

F-2 = type: biochemical, NK-1148 strain
Experimental: as §1, §2, §3

[1] = system: NK-1148 strain (FERM BP-1859); test: Effect of lignin-related substances on the enzyme production; type: cell-based; details: 0.2% of substance added after 7 days culture, further cultured at 28° C. for one day
Experimental: as §2, §3
After 100 ml of a medium of the same composition as that used in Example 3 was placed in a 500 ml Erlenmeyer flask and sterilized at 120° C. for 15 minutes, NK-1148 strain (FERM BP-1859) was inoculated into the medium and cultured at 28° C. for 7 days.

[2] = substance added at 1 mM, no addition = 100%
[3] = substance added at 0.5 mM, no addition = 100%

SMILES | Relative Activity F-3 (F-3; [2]) | Relative Activity F-1 (F-1; [2]) | Relative Activity F-2 (F-2; [2]) | also measured
OCCS [2-Mercapto-ethanol] | 15% | 10% | 19% | –
[Cl][Al]([Cl])[Cl] [AlCl3] | 65% | 61% | 65% | –
[Ba+2].[Cl-].[Cl-] [BaCl2] | 95% | 93% | 95% | –
OCc1ccccc1 [Benzyl alcohol, benzyl alcohol] | – | – | – | Enzymatic activity [1]: 0.01 Unit/ml
[Ca+2].[Cl-].[Cl-] [CaCl2] | 95% | 94% | 95% | –
[Cl-].[Cl-].[Co+2] [CoCl2] | 96% | 97% | 94% | –
[Cl][Cu][Cl] [CuCl2] | 100% | 102% | 92% | –
N[C@@H](CS)C(=O)O [Cysteine] | 13% | 11% | 21% | –
O=C(O)CN(CCN(CC(=O)O)CC(=O)O)CC(=O)O [EDTA] | – | – | – | Relative Activity F-3 (F-3; pH 5, 1000 µM): 101; Relative Activity F-1 (F-1; pH 5, 1000 µM): 98; Relative Activity F-2 (F-2; pH 5, 1000 µM): 102
[Cl][Fe]([Cl])[Cl] [FeCl3] | – | – | – | Relative Activity F-3 (F-3; [3]): 25%; Relative Activity F-1 (F-1; [3]): 15%; Relative Activity F-2 (F-2; [3]): 31%
[Cl][Hg][Cl] [HgCl2] | 18% | 11% | 21% | –
[Cl-].[Cl-].[Mg+2] [MgCl2] | 95% | 94% | 94% | –
[Cl][Mn][Cl] [MnCl2] | 95% | 95% | 95% | –
[N-]=[N+]=[N-].[Na+] [NaN3] | 20% | 14% | 23% | –
CCCCCCCCCCCCOS(=O)(=O)[O-].[Na+] [SDS, sodium dodecyl sulfate] | 103% | 106% | 101% | –
COc1cc(CO)cc(OC)c1O [Syringyl alcohol, syringyl alcohol] | – | – | – | Enzymatic activity [1]: 4.0 Unit/ml
COc1cc(C(O)C(CO)Oc2c(OC)cccc2OC)cc(OC)c1O (stereo not drawn) [Syringylglycerol-β-syringylether, syringylglycerol-β-syringylether] | – | – | – | Enzymatic activity [1]: 3.9 Unit/ml
COc1cc(CO)ccc1O [Vanillyl alcohol, vanillyl alcohol] | – | – | – | Enzymatic activity [1]: 3.95 Unit/ml
COc1ccc(CO)cc1OC [Veratryl alcohol, veratryl alcohol] | – | – | – | Enzymatic activity [1]: 0.05 Unit/ml
[Cl-].[Cl-].[Zn+2] [ZnCl3] | 94% | 94% | 93% | –
